Reference: patent US10412963B2, “Agricultural and horticultural fungicide composition and plant disease controlling method” (SDS BIOTECH K.K., priority 2016, dated 2019)

Assays:
cucumber powdery mildew = test: Effect test on cucumber powdery mildew (potted cucumbers, spray); type: in vivo; settings: 10 days after inoculation
Source text: A sufficient amount of a dilute solution of each wettable powder prepared in Formulation Example 1 was spread with a spray gun on cucumbers (variety: Hikari No. 3 P-type) that had been grown in a greenhouse to the third-leaf unfolding stage in a plastic pot having a diameter of 6 cm. The next day, the cucumbers were inoculated with a suspension of cucumber powdery mildew spores by misting. The cucumbers were allowed to stand in the greenhouse for 10 days, and diseased area ratios in the first leaf and the second leaf (first and second leaves from the ground) were investigated with eyes to determine a preventive value. The preventive value (%) was calculated using the following equation. Preventive value=(1−(ratio of infection zone in leaf with test compound/ratio of infection zone in control leaf))×100

Botrytis cinerea = test: Effect test on cucumber gray mold (cucumber cotyledons, paper disc); type: in vivo; settings: 20° C., 4 days
Procedure: Cotyledons were harvested from cucumbers (variety: Hikari No. 3 P-type) that had been grown in a greenhouse for 3 weeks in a plastic pot having a diameter of 6 cm. The harvested cotyledons were placed side by side in a Tupperware container in which wetted filter paper was laid, and a paper disc having a diameter of 8 mm was placed on the center of each of the cotyledons. To each paper disc, 50 μL of a suspension of Botrytis cinerea spores (2×10^4/ml, containing 2% of sucrose and 0.2% of a yeast extract) was added, and at the same time, 50 μL of a phosphate buffer (40 mM, pH 7.2) having dissolved therein each wettable powder prepared in Formulation Example 1 at a target concentration was added. A lid was placed on the Tupperware container, which was kept at 20° C. for 4 days. After that, diseased areas were investigated with eyes to determine a preventive value. The preventive value (%) was calculated using the following equation. Preventive value=(1−(diameter of infection zone in leaf with test compound/diameter of infection zone in control leaf))×100

Compound | Preventive value (%) (cucumber powdery mildew; single chemical 0.5 ppm) | Preventive value (%) (cucumber powdery mildew; single chemical 1 ppm) | Preventive value (%) (cucumber powdery mildew; single chemical 2 ppm) | Preventive value (%) (cucumber powdery mildew; single chemical 5 ppm) | Preventive value (%) (cucumber powdery mildew; single chemical 10 ppm) | Preventive value (%) (Botrytis cinerea; single chemical 0.5 ppm) | Preventive value (%) (Botrytis cinerea; single chemical 1 ppm) | Preventive value (%) (Botrytis cinerea; single chemical 2 ppm) | Preventive value (%) (Botrytis cinerea; single chemical 5 ppm) | Preventive value (%) (Botrytis cinerea; single chemical 10 ppm)
C[C@@H](N)C(=O)N[C@H]1COC(O)[C@H](N)[C@H]1O (stereo partly drawn) [Prumycin, 4-N-D-alanyl-2,4-diamino-2,4-dideoxyarabinose] | 7 | 21 | 44 | 69 | 95 | 6 | 45 | 55 | 95 | 100
surfactin | – | 0 | – | – | 0 | – | 0 | – | – | 0
iso-C14 [Ile^7]surfactin | – | 0 | – | – | 0 | – | 0 | – | – | 0
